Assay results reported in EPA's ToxRefDB 2.

Columns and labels:
mouse [1] = settings: Carcinogenicity, cd1, Oral, Feed, dose end: 78 week, group: systemic
rat [2] = settings: Subchronic oral toxicity in rodents, sprague dawley, Feed, dose end: 13 week, group: systemic
dog [3] = settings: Chronic toxicity, beagle, Oral, Feed, dose end: 52 week, group: systemic
rat [4] = settings: Multigenerational reproductive toxicity study, sprague dawley, Oral, Feed, dose end: 2 generation
rat [5] = settings: Combined chronic toxicity/carcinogenicity, other, Oral, Feed, dose end: 24 month, group: systemic
dog [6] = settings: Subchronic oral toxicity in nonrodent, beagle, Feed, dose end: 28 day, group: systemic
rat [7] = settings: Subchronic oral toxicity in rodents, sprague dawley, Feed, dose end: 90 day, group: systemic
dog [8] = settings: Subchronic oral toxicity in nonrodent, beagle, Feed, dose end: 90 day, group: systemic
mouse [9] = settings: Subchronic oral toxicity in rodents, cd1, Feed, dose end: 90 day
rat [10] = settings: Prenatal developmental toxicity study, sprague dawley, Oral, Gavage/Intubation, dose end: 15 GD
rat [11] = settings: Subchronic oral toxicity in rodents, sprague dawley, Feed, dose end: 13 week, group: systemic, systemic / in life observation / body weight / body weight + systemic / in life observation / body weight / body weight gain + systemic / in…
[12] = systemic / in life observation / body weight / body weight + systemic / in life observation / body weight / body weight gain + systemic / …
[13] = systemic / pathology microscopic / bone marrow / hyperplasia
[14] = systemic / pathology microscopic / kidney / inclusion body intranuclear
[15] = systemic / pathology microscopic / kidney / inclusion body intranuclear + systemic / in life observation / body weight / body weight + …
[16] = systemic / in life observation / body weight / body weight + systemic / in life observation / body weight / body weight gain + systemic / in…
[17] = group: offspring, developmental / developmental landmark / preputial separation / preputial separation + systemic / in life observation / body weight / litter…
[18] = group: parental, systemic / in life observation / body weight / body weight + systemic / in life observation / body weight / body weight gain + systemic / in…
[19] = group: reproductive, reproductive / offspring survival early / litter size / litter size
[20] = systemic / in life observation / clinical signs / respiration (rales)
[21] = systemic / in life observation / body weight / body weight gain
[22] = systemic / in life observation / body weight / body weight gain + systemic / in life observation / food consumption / food consumption + …
[23] = systemic / pathology microscopic / spleen / pigmentation
[24] = systemic / pathology microscopic / spleen / pigmentation + systemic / in life observation / body weight / body weight + systemic / in life …
[25] = systemic / in life observation / body weight / body weight gain + systemic / in life observation / body weight / body weight + systemic / in…
[26] = group: cholinesterase, cholinesterase / cholinesterase / cholinesterase / cholinesterase (che)
[27] = group: systemic, systemic / clinical chemistry / glucose / glucose + systemic / in life observation / body weight / body weight + systemic / in life …
[28] = group: developmental, developmental / developmental malformation / bone / short
[29] = group: maternal, systemic / in life observation / body weight / body weight + systemic / in life observation / body weight / body weight gain + systemic / in…

Question: For `CC(=NC#N)N(C)Cc1ccc(Cl)nc1` [Acetamiprid], which LOAEL (mouse [1]; [12]) is on record?
Answer: Its LOAEL is 65.6 mg/kg/day.

Question: What about the NOAEL (mouse [1]; [12]) of the same compound?
Answer: Its NOAEL is 20.3 mg/kg/day.

Question: What about the LEL (mouse [1]; [13]) of the same compound?
Answer: Its LEL is 20.3 mg/kg/day.

Question: And the NEL (mouse [1]; [13])?
Answer: The NEL was under 20.3 mg/kg/day.

Question: And the LEL (rat [2]; [14])?
Answer: The LEL was 250 mg/kg/day.

Question: And the LOAEL (rat [2]; [14])?
Answer: The LOAEL was 250 mg/kg/day.

Question: What about the NEL (rat [2]; [15]) of the same compound?
Answer: Its NEL is 48.9 mg/kg/day.

Question: What about the NOAEL (rat [2]; [15]) of the same compound?
Answer: The NOAEL was 48.9 mg/kg/day.

Question: What about the LOAEL (dog [3]; systemic / in life observation / body weight / body weight + systemic / in life observation / body weight / body weight gain) of the same compound?
Answer: Its LOAEL is 55 mg/kg/day.

Question: What about the LEL (dog [3]; [16]) of the same compound?
Answer: The LEL was 55 mg/kg/day.

Question: And the NEL (dog [3]; [16])?
Answer: The NEL was 20 mg/kg/day.

Question: And the NOAEL (dog [3]; [16])?
Answer: Its NOAEL is 20 mg/kg/day.

Question: And the LEL (rat [4]; group: offspring, developmental / developmental landmark / preputial separation / preputial separation)?
Answer: The LEL was 17.9 mg/kg/day.

Question: What about the LOAEL (rat [4]; [17]) of the same compound?
Answer: The LOAEL was 51 mg/kg/day.

Question: What about the NEL (rat [4]; [17]) of the same compound?
Answer: Its NEL is 6.5 mg/kg/day.

Question: And the NOAEL (rat [4]; [17])?
Answer: Its NOAEL is 17.9 mg/kg/day.

Question: And the LOAEL (rat [4]; [18])?
Answer: Its LOAEL is 51 mg/kg/day.

Question: What about the NEL (rat [4]; [18]) of the same compound?
Answer: Its NEL is 6.5 mg/kg/day.

Question: What about the NOAEL (rat [4]; [18]) of the same compound?
Answer: The NOAEL was 17.9 mg/kg/day.

Question: What about the LEL (rat [4]; group: parental, systemic / in life observation / body weight / body weight gain) of the same compound?
Answer: The LEL was 17.9 mg/kg/day.

Question: What about the LEL (rat [4]; [19]) of the same compound?
Answer: Its LEL is 51 mg/kg/day.

Question: What about the LOAEL (rat [4]; [19]) of the same compound?
Answer: The LOAEL was 51 mg/kg/day.

Question: What about the NEL (rat [4]; [19]) of the same compound?
Answer: The NEL was 17.9 mg/kg/day.

Question: And the NOAEL (rat [4]; [19])?
Answer: Its NOAEL is 17.9 mg/kg/day.

Question: And the LEL (rat [5]; [20])?
Answer: The LEL was 7.1 mg/kg/day.

Question: What about the NEL (rat [5]; [20]) of the same compound?
Answer: The NEL was under 7.1 mg/kg/day.

Question: What about the LOAEL (rat [5]; systemic / pathology microscopic / liver / vacuolization) of the same compound?
Answer: Its LOAEL is 17.5 mg/kg/day.

Question: What about the NOAEL (rat [5]; systemic / pathology microscopic / liver / vacuolization + systemic / in life observation / body weight / body weight + systemic / in life …) of the same compound?
Answer: Its NOAEL is 7.1 mg/kg/day.

Question: And the LEL (dog [6]; [21])?
Answer: Its LEL is 28 mg/kg/day.

Question: What about the LOAEL (dog [6]; [21]) of the same compound?
Answer: Its LOAEL is 28 mg/kg/day.

Question: And the NEL (dog [6]; [22])?
Answer: The NEL was 16.7 mg/kg/day.

Question: And the NOAEL (dog [6]; [22])?
Answer: The NOAEL was 16.7 mg/kg/day.

Question: What about the LEL (rat [7]; [23]) of the same compound?
Answer: The LEL was 112 mg/kg/day.

Question: And the LOAEL (rat [7]; [23])?
Answer: Its LOAEL is 112 mg/kg/day.

Question: And the NEL (rat [7]; [24])?
Answer: The NEL was 36.5 mg/kg/day.

Question: And the NOAEL (rat [7]; [24])?
Answer: Its NOAEL is 36.5 mg/kg/day.

Question: What about the LOAEL (dog [8]; [21]) of the same compound?
Answer: The LOAEL was 32 mg/kg/day.

Question: What about the NEL (dog [8]; [25]) of the same compound?
Answer: The NEL was 14 mg/kg/day.

Question: And the NOAEL (dog [8]; [25])?
Answer: Its NOAEL is 14 mg/kg/day.

Question: What about the LEL (dog [8]; systemic / in life observation / body weight / body weight gain + systemic / in life observation / food consumption / food consumption) of the same compound?
Answer: The LEL was 32 mg/kg/day.

Question: And the LEL (mouse [9]; [26])?
Answer: The LEL was 430 mg/kg/day.

Question: What about the LOAEL (mouse [9]; [26]) of the same compound?
Answer: Its LOAEL is over 430 mg/kg/day.

Question: What about the NEL (mouse [9]; [26]) of the same compound?
Answer: The NEL was 211 mg/kg/day.

Question: What about the NOAEL (mouse [9]; [26]) of the same compound?
Answer: The NOAEL was at least 430 mg/kg/day.

Question: And the LEL (mouse [9]; [27])?
Answer: The LEL was 211 mg/kg/day.

Question: And the LOAEL (mouse [9]; [27])?
Answer: Its LOAEL is 211 mg/kg/day.

Question: And the NEL (mouse [9]; [27])?
Answer: Its NEL is 106 mg/kg/day.

Question: And the NOAEL (mouse [9]; [27])?
Answer: Its NOAEL is 106 mg/kg/day.

Question: And the LEL (rat [10]; [28])?
Answer: The LEL was 50 mg/kg/day.

Question: What about the LOAEL (rat [10]; [28]) of the same compound?
Answer: Its LOAEL is 50 mg/kg/day.

Question: What about the NEL (rat [10]; [28]) of the same compound?
Answer: Its NEL is 16 mg/kg/day.

Question: And the NOAEL (rat [10]; [28])?
Answer: Its NOAEL is 16 mg/kg/day.

Question: And the LEL (rat [10]; [29])?
Answer: The LEL was 50 mg/kg/day.

Question: What about the LOAEL (rat [10]; [29]) of the same compound?
Answer: The LOAEL was 50 mg/kg/day.

Question: What about the NEL (rat [10]; [29]) of the same compound?
Answer: The NEL was 16 mg/kg/day.

Question: What about the NOAEL (rat [10]; [29]) of the same compound?
Answer: The NOAEL was 16 mg/kg/day.

Question: And the LEL (rat [11])?
Answer: Its LEL is 50.8 mg/kg/day.

Question: And the LOAEL (rat [11])?
Answer: The LOAEL was 50.8 mg/kg/day.

Question: And the NEL (rat [11])?
Answer: Its NEL is 12.4 mg/kg/day.

Question: What about the NOAEL (rat [11]) of the same compound?
Answer: The NOAEL was 12.4 mg/kg/day.
